Earlier results in patent US7578964B2, “Powder injection molding composition and method of use” (priority 2001, dated 2009).

Columns and labels:
[1] = solute solubility in water at 298.15 K; NIST Chemistry WebBook
[2] = for Octanol - Water Partition Coefficient log POW: Handbook of Environmental Data on Organic Compounds, 4th Edition

Compound	Henry's Law Constant k^0H [1]	Octanol - Water Partition Coefficient log POW [2]	log POW value ([2]; stated in text as known to those skilled in the art)
CC(C)=O [Acetone]	30 mol/Kg*bar	−0.24	
c1ccccc1 [Benzene]	0.18 mol/Kg*bar		
ClC(Cl)(Cl)Cl [Carbon Tetrachloride]	0.03 mol/Kg*bar	2.64	
CCOCC [Diethyl Ether]	0.78-1.2 mol/Kg*bar	0.77	
C1COCCO1 [Dioxane]		−0.42	
CCO [Ethanol]	200 mol/Kg*bar		
CCOC(C)=O [Ethyl Acetate]	8.9 mol/Kg*bar	0.66	
CCCCCC [Hexane]	0.001 mol/Kg*bar	4	
CC(C)O [Isopropanol]	130 mol/Kg*bar		
CCC(C)=O [MEK]		0.28	
CO [Methanol]		−0.82	
ClCCl [Methylene Chloride]	0.41 mol/Kg*bar		
C1CCOC1 [THF]		0.45	
Cc1ccccc1 [Toluene]	0.15 mol/Kg*bar		
ClC=C(Cl)Cl [Trichloroethylene]	0.11 mol/Kg*bar	2.42	
O=C1CCCCCN1 [caprolactam, ε-caprolactam]			about 0.12
